Test system: cBid+Bax
Assay: Control liposome permeabilization without Bcl-xL, cBid+Bax
Assay type: biochemical
Conditions: 320 nM pH9 treated TCTP, 100 nM Bax, 20 nM cBid
Description: (A–E) in vitro reconstitution assay on liposome permeabilization. […] The treated Bcl-xL was then added to reactions containing ANTS-DPX liposomes, 100 nM Bax and 20 nM of either cBid (A,B) or cBidmt1(C,D) at pH 7. Liposome permeabilization was quantified by fluorescence after 5h incubation at 37 °C where 100% release was defined as the fluorescence change due to lipid solubilization with 1% Triton X-100. […] Error bars, std. dev. n = 3. To compare between the TCTP treated groups and the Control group statistically, two-way ANOVA test was performed for (A–D) and one-way ANOVA test was performed for (E). […] Colored asterisks above each data point indicate the statistical significance (*p < 0.05; **p < 0.01, no asterisks if p ≥ 0.05). A complete statistical analysis is provided in Supplementary Table 2–4. (F) Permeabilization assays of mitochondrial membrane by tBid and Bax assessing cytochrome c release. […] Cyto c extra-mito: in the supernatant, analysed by Western blot. […]
Figure 10 A,B) or cBid mt1 (Supplementary Figure 10 C,D) at pH 7 to quantify the activity of Bcl-xL inhibition of liposome permeablization. […]
the Control group (No TCTP) were analyzed through Dunnett's multiple comparisons test at each sample condition (Bcl-XL concentration) for statistical significance. […]
Statistical significance was analyzed through Dunnett's multiple comparisons test. […]

In the case of “TCTP: Translationally Controlled Tumor Protein (TCTP/tpt1), recombinant full-length”, the “effect on cBid-Bax induced permeabilization not containing Bcl-xL” value is reported as “no effect”.
